Measurements: patent USRE37781E1, “Substituted cyclic carbonyls and derivatives thereof useful as retroviral protease inhibitors” (DuPont Pharmaceuticals Company, priority 1991, dated 2002)
Like-named read-outs stand apart in the source and are kept apart here.

Assays:
[1] = test system: HIV-1 (RF) in MT-2 cells; assay: microbe, parasite or virus in culture; assay type: cell-based
Experimental: DNA Plasmids and in vitro RNA transcripts:
Plasmid pDAB 72 containing both gag and pol sequences of BH10 (bp 113-1816) cloned into PTZ 19R was prepared according to Erickson-Viitanen et al. AIDS Research and Human Retroviruses 1989, 5, 577. The plasmid was linearized with Bam HI prior to the generation of in vitro RNA transcripts using the Riboprobe Gemini system II kit (Promega) with T7 RNA polymerase. Synthesized RNA was purified by treatment with RNase free DNAse (Promega), phenol-chloroform extraction, and ethanol precipitation. RNA transcripts were dissolved in water, and stored at −70° C. The concentration of RNA was determined from the A260.
Biotinylated capture probes were purified by HPLC after synthesis on an Applied Biosystems (Foster City, Calif.) DNA synthesizer by addition of biotin to the 5′ terminal end of the oligonucleotide, using the biotin-phosphoramidite reagent of Cocuzza, Tet. Lett. 1989, 30, 6287. The gag biotinylated capture probe (5-biotin-[…] 3′) was complementary to nucleotides 889-912 of HXB2 and the pol biotinylated capture probe (5′-biotin-[…] 3′) was complementary to nucleotides 2374-2395 of HXB2. Alkaline phosphatase conjugated oligonucleotides used as reporter probes were prepared by Syngene (San Diego, Calif.). The pol reporter probe (5′ […] 3′) was complementary to nucleotides 2403-2425 of HXB2. The gag reporter probe (5′ […] 3′) was complementary to nucleotides 950-973 of HXB2. All nucleotide positions are those of the GenBank Genetic Sequence Data Bank as accessed through the Genetics Computer Group Sequence Analysis Software Package (Devereau Nucleic Acids Research 1984, 12, 387). The reporter probes were prepared as 0.5μM stocks in 2× SSC (0.3M NaCl, 0.03M sodium citrate), 0.05M Tris pH 8.8, 1 mg/mL BSA. The biotinylated capture probes were prepared as 10 μM stocks in water.
Streptavidin coated plates:
Nunc-immunomodule microtiter plate strips were coated by addition of 200 μL of streptavidin (30 ug/mL, Scripps, La Jolla, Calif.) in freshly prepared 10 mM sodium carbonate (pH 9.6). Plates were incubated overnight at 4° C. Streptavidin solution was aspirated from the wells and a blocking buffer composed of phosphate buffered saline (PBS), 20 mg/mL bovine serum albumin (crystalline, nuclease and protease free, Calbiochem) and 100 mg/mL lactose (Sigma) was added to the plates for 3 hrs at room temperature. Blocking buffer was removed from the wells, which were allowed to dry overnight at room temperature and subsequently stored at 4° C. in zip lock bags with desiccant. For the majority of the compound evaluation experiments, streptavidin coated plates were obtained from Du Pont Biotechnology Systems (Boston, Mass.).
MT-2, CEM, and H9 cells were maintained in RPMI 1640 supplemented with 5% fetal calf serum (FCS), 2 mM L-glutamine and 50 μg/mL gentamycin, all from Gibco. Laboratory strains of HIV-1 (RF, MN and IIIB) were propagated in H9 cells in the same medium. Virus stocks were prepared approximately 1 month after acute infection of H9 cells by clarification of the tissue culture medium and storage of aliquots at −70° C. […] Each aliquot of virus stock used for infection was thawed only once. In some cases, infected H9 cells were shifted to Dulbecco's modified Eagle's medium 3-10 days before collection of virus in order to generate virus stocks in medium with low biotin content. Clinical isolates of HIV that had been passaged once in MT-2 cells were used to infect fresh MT-2 cells in RPMI medium. Three days after infection, cells were pelleted, resuspended and culture continued in Dulbecco's modified Eagle's medium as above. Virus stocks of clinical isolates were prepaid 10-15 days after infection when cytopathic effects were apparent in the culture.

[2] = target: single-chain tethered dimer of HIV protease (Human immunodeficiency virus 1, UniProt P04585); assay: biochemical; assay type: biochemical; set-up: fused on or other part: A second copy of the same protease unit is joined to the first by a short peptide tether, giving one polypeptide
Experimental: HIV Protease Inhibition Assay—HPLC Method
Active protease was prepared as described therein by extraction with 67% acetic acid, dilution 33-fold with water, dialysis against water and then against a “refolding buffer” consisting of 20 mM MES, 1 mM dithiothreitol and 10% glycerol. Protease was stored as a stock preparation at 10 uM in refolding buffer.
Substrate: Peptide of sequence: aminobenzoyl-Ala-Thr-His-Gln-Val-Tyr-Phe(NO2)-Val-Arg-Lys-Ala containing p-nitrophenylalanine, was prepared by solid phase synthesis as previously described Cheng et al., op.cit. Stock solutions of 2 mM substrate were prepared in DMSO.
Inhibitory compounds were dissolved in sufficient DMSO to make 3 mM stock solutions. All further dilutions were prepared in “assay buffer”: 1M NaCl, 50 mM MES, pH 5.5, 1 mM EDTA, 1 mM DTT, […] glycerol.
Enzyme reaction: In a 2 ml screw-cap centrifuge tube were added 50 ul protease (final concentration 0.25 nM) and 0.1 ml inhibitory compound (final concentration […]). After 15 min preincubation at room temperature, the reaction was started with the addition of 0.05 ml substrate (final concentration 5 uM). Incubation was carried out at 30 C. for 1 hr. The reaction was stopped with 1 ml 0.1M ammonium hydroxide.
HPLC measurement of product formation: The product (aminobenzoyl-Ala-Thr-His-Gln-Val-Tyr) was separated from substrate on a Pharmacia MonoQ anion exchange column. The injection volume was 0.2 ml. The mobile phases were: A (20 mM trisHCl, pH 9.0, 0.02% sodium Azide, 10% acetonitrile), B (20 mM tris HCl, pH 9.0, 0.02% sodium azide, 0.5M ammonium formate, 10% acetonitrile). The mobile phases were pumped at 1 ml/min, with a gradient from 0 to 30% B in 5 min, 100% B for 4 min to wash the column, and a re-equilibration for 4 min. The retention time of the product was 3.6 min. Detection with a Shimadzu model RF535 fluorescence monitor was at 330 nm (excitation) and 430 (emission).

[3] = Human immunodeficiency virus 1, MT2, 48 h, Table 2d, class symbols, read-out: IC90
[4] = read-out: HPLC K1, Table 2d, class symbols
[5] = Table 2d, HIV protease inhibition, HPLC method, read-out: HPLC K1
[6] = Table 2d, class symbols, read-out: HPLC K1
[7] = HIV protease inhibition, HPLC method, Table 2d, read-out: HPLC K1
[8] = read-out: HPLC Ki, Table 1d, lower part

CCC(=O)CN1C(=O)N(CC(=O)CC)C(Cc2ccccc2)C(O)C(O)C1Cc1ccccc1 (centres unmarked) [Example 15VO]
IC90 [1, 3]: > 50 µg/mL | Ki [2, 4]: 10 to 1000 nM

COc1cccc(CN2C(=S)N(Cc3cccc(OC)c3)C(Cc3ccccc3)C(O)C(O)C2Cc2ccccc2)c1 (centres unmarked) [Example 27G]
IC90 ([1]; Table 2q): +++ (+++=<10 μg/mL) | Ki ([2]; Table 2q, read-out: HPLC Ki): < 10 nM

O=C1N(Cc2ccc(F)c(CO)c2)C(Cc2ccccc2)C(O)C(O)C(Cc2ccccc2)N1Cc1ccc(F)c(CO)c1 (centres unmarked) [15EG]
IC90 ([1]; Table 2d, HIV RNA assay): +++ (+++=<10 μg/mL) | Ki [2, 5]: < 10 nM

O=C1N(Cc2cccc(C(=O)C(F)(F)F)c2)C(Cc2ccccc2)C(O)C(O)C(Cc2ccccc2)N1Cc1cccc(C(=O)C(F)(F)F)c1 (centres unmarked) [Example 15XM]
IC90 ([1]; Human immunodeficiency virus 1, MT2, 48 h, Table 2d, HIV RNA assay, read-out: IC90): < 10 µg/mL | Ki ([2]; read-out: HPLC K1, Table 2d, HIV protease inhibition, HPLC method): < 10 nM

CCN1C(Cc2ccccc2)C(O)C(O)C(Cc2ccccc2)N(CC)S1(=O)=O (centres unmarked) [23W]
IC90 ([1]; Table 2m): ++ (++=10 to 100 μg/mL) | Ki ([2]; Table 2m, read-out: HPLC Ki): 10 to 1000 nM

CCOC(=O)c1cccc(CN2C(=O)N(Cc3cccc(C(=O)OCC)c3)C(Cc3ccccc3)C(O)C(O)C2Cc2ccccc2)c1 (centres unmarked) [10W]
IC90 ([1]; Table 2d, class symbols): + (+=>100 μg/mL) | Ki [2, 6]: < 10 nM

CN(C)CCCCN1C(=O)N(CCCCN(C)C)C(Cc2ccccc2)C(O)C(O)C1Cc1ccccc1.Cl.Cl (centres unmarked) [15FH]
IC90 ([1]; HIV RNA assay, HIV-1 infected MT-2 cells, Table 2d): ++/+ (The ++/+ is used in the cases where an IC90 was determined to be >50 μg/mL) | Ki [2, 7]: 10 to 1000 nM

O=C1N(CCCCCO)C(Cc2ccccc2)C(O)C(O)C(Cc2ccccc2)N1Cc1ccc(CO)cc1 (centres unmarked) [Example 15VK]
IC90 [1, 3]: < 10 µg/mL | Ki [2, 4]: < 10 nM

Nc1ccc(CC2C(O)C(O)C(Cc3ccc(N)cc3)N(CC3CC3)C(=O)N2CC2CC2)cc1 (centres unmarked) [Example 20F]
IC90 ([1]; Human immunodeficiency virus 1, MT2, Table 2i, read-out: IC90): < 10 µg/mL | Ki ([2]; read-out: HPLC Ki, Table 2i): 10 to 1000 nM

O=C1N(Cc2ccc(CO)cc2)C(Cc2ccc(F)cc2)C(O)C(O)C(Cc2ccc(F)cc2)N1Cc1ccc(CO)cc1 (centres unmarked) [20I]
Ki ([2]; Table 2i, read-out: HPLC Ki): < 10 nM

NC(=NO)c1cccc(CN2C(=O)N(Cc3cccc(C(N)=NO)c3)C(Cc3cccs3)C(O)C(O)C2Cc2cccs2)c1 (centres unmarked) [16P]
Ki ([2]; Table 2e, read-out: K4 HPLC): < 10 nM

O=C1N(Cc2ccccc2)C(Cc2c[nH]c3ccccc23)C(O)C(O)C(Cc2c[nH]c3ccccc23)N1Cc1ccccc1 (centres unmarked) [Example 16Y]
Ki ([2]; Table 2e, read-out: K4 HPLC): 10 to 1000 nM

COc1ccccc1CC1C(O)C(O)C(Cc2ccccc2OC)N(CC2CC2)C(=O)N1CC1CC1 (centres unmarked) [Example 16S]
Ki ([2]; Table 2e, read-out: K4 HPLC): 10 to 1000 nM

CSCCC1C(O)C(O)C(CCSC)N(Cc2ccc(CO)cc2)C(=O)N1Cc1ccc(CO)cc1 (centres unmarked) [16AF]
Ki ([2]; Table 2e, read-out: K4 HPLC): > 1000 nM

Nc1ncc(-c2cccc(CN3C(=O)N(Cc4cccc(-c5ccnc(N)n5)c4)C(Cc4ccccc4)C(O)C(O)C3Cc3ccccc3)c2)cn1 (centres unmarked) [15BB]
Ki [2, 5]: 10 to 1000 nM

CN(C)CCNC(=O)c1cccc(CN2C(=O)N(Cc3cccc(C(=O)NCCN(C)C)c3)C(Cc3ccccc3)C(O)C(O)C2Cc2ccccc2)c1 (centres unmarked) [15XV]
Ki [2, 5]: < 10 nM

COc1ccc(CC2C(O)C(O)C(Cc3ccc(OC)cc3)N(Cc3ccc4ccccc4c3)C(=O)N2Cc2ccc3ccccc3c2)cc1 (centres unmarked) [20AH]
Ki ([2]; Table 2i, read-out: HPLC Ki): < 10 nM

O=C1N(CC2CC2)C(Cc2cccs2)C(O)C(O)C(Cc2cccs2)N1CC1CC1 (centres unmarked) [16O]
Ki ([2]; Table 2e, read-out: K4 HPLC): < 10 nM

O=C1N(CCCCCn2cccn2)C(Cc2ccccc2)C(O)C(O)C(Cc2ccccc2)N1CCCCCn1cccn1 (centres unmarked) [15FL]
Ki ([2]; read-out: HPLC K1, HIV protease inhibition, HPLC method, Table 2d): > 1000 nM

COc1ccccc1CC1C(O)C(O)C(Cc2ccccc2OC)N(Cc2ccccc2)C(=O)N1Cc1ccccc1 (centres unmarked) [Example 16T]
Ki ([2]; Table 2e, read-out: K4 HPLC): 10 to 1000 nM

COCCOCO[C@@H]1C(=O)[C@@H](Cc2ccccc2)N(CC2CC2)C(=O)N(CC2CC2)[C@@H]1Cc1ccccc1 [Example 7AA]
Ki [2, 8]: > 1000 nM

O=C1N(Cc2ccccc2)C(CCCCO)C(O)C(O)C(CCCCO)N1Cc1ccccc1 (centres unmarked) [Example 16AO]
Ki ([2]; Table 2e, read-out: K4 HPLC): > 1000 nM

CCCCCCN1C(=O)N(CCCCCC)C(C(C)C)C(O)C(O)C1C(C)C (centres unmarked) [Example 16X]
Ki ([2]; Table 2e, read-out: K4 HPLC): < 10 nM

C=CCCC1C(O)C(O)C(CCC=C)N(CC=C)C(=O)N1CC=C (centres unmarked) [Example 16AS]
Ki ([2]; Table 2e, read-out: K4 HPLC): > 1000 nM

COc1ccc(CC2C(O)C(O)C(Cc3ccc(OC)cc3)N(CC3CC3)C(=O)N2CC2CC2)cc1 (centres unmarked) [20AF]
Ki ([2]; Table 2i, read-out: HPLC Ki): < 10 nM

O=C1N(CC2CC2)C(Cc2ccccc2)c2ncoc2C(Cc2ccccc2)N1CC1CC1 (centres unmarked) [Example 7AD]
Ki [2, 8]: 10 to 1000 nM

C=CCCC1C(O)C(O)C(CCC=C)N(Cc2ccccc2)C(=O)N1Cc1ccccc1 (centres unmarked) [Example 16AK]
Ki ([2]; Table 2e, read-out: K4 HPLC): > 1000 nM

CC(C)CC1C(O)C(O)C(CC(C)C)N(CC2CC2)C(=O)N1CC1CC1 (centres unmarked) [Example 16J]
Ki ([2]; Table 2e, read-out: K4 HPLC): < 10 nM

CC(CCCN1C(=O)N(CCCC(C)n2ccnc2)[C@H](Cc2ccccc2)[C@H](O)[C@@H](O)[C@H]1Cc1ccccc1)n1ccnc1 (some centres unmarked) [15FK]
Ki [2, 7]: > 1000 nM

NC(Cc1ccccc1)C(=O)Nc1cccc(CN2C(=O)N(Cc3cccc(NC(=O)C(N)Cc4ccccc4)c3)C(Cc3ccccc3)C(O)C(O)C2Cc2ccccc2)c1 (centres unmarked) [15V]
Ki [2, 6]: < 10 nM

O=C1N(Cc2ccccc2)C(Cc2ccc3ccccc3c2)C(O)C(O)C(Cc2ccc3ccccc3c2)N1Cc1ccccc1 (centres unmarked) [16K]
Ki ([2]; Table 2e, read-out: K4 HPLC): < 10 nM

O=C1N(CC2CC2)C(Cc2ccccc2)C(O)C(OCc2ccccc2)C(Cc2ccccc2)N1CC1CC1 (centres unmarked) [Example 7AH]
Ki [2, 8]: > 1000 nM
